# In patent US9328070B2, “Ethynyl derivatives” (Hoffmann-La Roche Inc., priority 2012, dated 2016):
# Key:
# [1] = molecular target: T1, human mGlu5a receptor (Homo sapiens (Human), UniProt P41594); assay: Intracellular Ca2+ mobilization assay (mGlu5 PAM assay); assay type: cell-based; settings: for Activity profile: PAM = positive allosteric modulator, NAM = negative allosteric modulator; for mGlu5 PAM EC50 [nM] / EC50 (nM) mGlu5 PAM assay: HEK-293 cells, human mGlu5a, glutamate at EC20; for Efficacy [%]: maximal response in % of the maximal stimulatory effect of saturating L-glutamate
# T1 sequence (P41594 other isoform, or with tags, fused parts or gaps): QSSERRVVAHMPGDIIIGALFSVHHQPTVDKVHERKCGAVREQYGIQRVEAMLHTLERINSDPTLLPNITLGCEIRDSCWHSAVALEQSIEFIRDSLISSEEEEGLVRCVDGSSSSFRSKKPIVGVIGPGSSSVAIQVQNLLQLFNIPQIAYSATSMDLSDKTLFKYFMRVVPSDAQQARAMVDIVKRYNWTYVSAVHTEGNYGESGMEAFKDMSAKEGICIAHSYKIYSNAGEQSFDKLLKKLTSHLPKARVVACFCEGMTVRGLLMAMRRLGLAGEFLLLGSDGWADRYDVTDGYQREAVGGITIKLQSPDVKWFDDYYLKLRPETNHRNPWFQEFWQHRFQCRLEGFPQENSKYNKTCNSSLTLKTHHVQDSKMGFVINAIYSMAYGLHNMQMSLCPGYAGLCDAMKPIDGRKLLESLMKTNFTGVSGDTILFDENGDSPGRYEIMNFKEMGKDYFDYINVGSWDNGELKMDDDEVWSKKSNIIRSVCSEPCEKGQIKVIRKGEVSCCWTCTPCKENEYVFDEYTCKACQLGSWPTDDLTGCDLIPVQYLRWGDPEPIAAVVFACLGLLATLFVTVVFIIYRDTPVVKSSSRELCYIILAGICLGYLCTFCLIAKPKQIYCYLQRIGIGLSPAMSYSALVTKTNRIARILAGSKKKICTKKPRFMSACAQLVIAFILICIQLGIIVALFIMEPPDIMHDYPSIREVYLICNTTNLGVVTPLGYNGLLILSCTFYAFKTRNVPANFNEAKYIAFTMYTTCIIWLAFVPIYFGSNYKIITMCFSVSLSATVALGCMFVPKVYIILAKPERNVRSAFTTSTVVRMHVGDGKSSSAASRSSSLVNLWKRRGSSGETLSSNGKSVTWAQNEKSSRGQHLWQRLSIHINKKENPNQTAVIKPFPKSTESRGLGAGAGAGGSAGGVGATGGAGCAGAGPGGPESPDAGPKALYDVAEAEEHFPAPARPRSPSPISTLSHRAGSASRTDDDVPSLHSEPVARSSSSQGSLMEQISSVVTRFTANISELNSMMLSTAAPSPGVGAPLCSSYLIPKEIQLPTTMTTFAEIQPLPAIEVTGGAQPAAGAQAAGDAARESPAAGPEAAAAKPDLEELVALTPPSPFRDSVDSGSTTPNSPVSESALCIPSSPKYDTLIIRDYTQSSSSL
# Method: A monoclonal HEK-293 cell line stably transfected with a cDNA encoding for the human mGlu5a receptor was generated; for the work with mGlu5 Positive Allosteric Modulators (PAMs), a cell line with low receptor expression levels and low constitutive receptor activity was selected to allow the differentiation of agonistic versus PAM activity. Cells were cultured according to standard protocols (Freshney, 2000) in Dulbecco's Modified Eagle Medium with high glucose supplemented with 1 mM glutamine, 10% (vol/vol) heat-inactivated bovine calf serum, Penicillin/Streptomycin, 50 μg/ml hygromycin and 15 μg/ml blasticidin (all cell culture reagents and antibiotics from Invitrogen, Basel, Switzerland).
# About 24 hrs before an experiment, 5×10^4 cells/well were seeded in poly-D-lysine coated, black/clear-bottomed 96-well plates. The cells were loaded with 2.5 μM Fluo-4AM in loading buffer (1×HBSS, 20 mM HEPES) for 1 hr at 37° C. and washed five times with loading buffer. The cells were transferred into a Functional Drug Screening System 7000 (Hamamatsu, Paris, France), and 11 half logarithmic serial dilutions of test compound at 37° C. were added and the cells were incubated for 10-30 min. with on-line recording of fluorescence. Following this pre-incubation step, the agonist L-glutamate was added to the cells at a concentration corresponding to EC20 (typically around 80 μM) with on-line recording of fluorescence; in order to account for day-to-day variations in the responsiveness of cells, the EC20 of glutamate was determined immediately ahead of each experiment by recording of a full dose-response curve of glutamate.
# Responses were measured as peak increase in fluorescence minus basal (i.e. fluorescence without addition of L-glutamate), normalized to the maximal stimulatory effect obtained with saturating concentrations of L-glutamate. Graphs were plotted with the % maximal stimulatory using XLfit, a curve fitting program that iteratively plots the data using Levenburg Marquardt algorithm. The single site competition analysis equation used was y=A+((B−A)/(1+((x/C)D))), where y is the % maximal stimulatory effect, A is the minimum y, B is the maximum y, C is the EC50, x is the log 10 of the concentration of the competing compound and D is the slope of the curve (the Hill Coefficient). From these curves the EC50 (concentration at which half maximal stimulation was achieved), the Hill coefficient as well as the maximal response in % of the maximal stimulatory effect obtained with saturating concentrations of L-glutamate were calculated.
# A depression of the signal observed after addition of the EC20 concentration of L-glutamate was indicative of an inhibitory activity of the test compound.
# [2] = molecular target: T1, human mGlu5a receptor; assay: MPEP binding assay ([3H]MPEP displacement); settings: [3H]MPEP 2 nM, 1 h at 4° C., EBNA cell membranes
# Method: For binding experiments, cDNA encoding human mGlu 5a receptor was transiently transfected into EBNA cells using a procedure described by Schlaeger and Christensen [Cytotechnology 15:1-13 (1998)]. Cell membrane homogenates were stored at −80° C. until the day of assay where upon they were thawed and resuspended and polytronised in 15 mM Tris-HCl, 120 mM NaCl, 100 mM KCl, 25 mM CaCl2, 25 mM MgCl2 binding buffer at pH 7.4 to a final assay concentration of 20 μg protein/well.
# Saturation isotherms were determined by addition of twelve [^3H]MPEP concentrations (0.04-100 nM) to these membranes (in a total volume of 200 μl) for 1 h at 4° C. Competition experiments were performed with a fixed concentration of [^3H]MPEP (2 nM) and IC50 values of test compounds evaluated using 11 concentrations (0.3-10,000 nM). Incubations were performed for 1 h at 4° C.
# At the end of the incubation, membranes were filtered onto unifilter (96-well white microplate with bonded GF/C filter preincubated 1 h in 0.1% PEI in wash buffer, Packard BioScience, Meriden, Conn.) with a Filtermate 96 harvester (Packard BioScience) and washed 3 times with cold 50 mM Tris-HCl, pH 7.4 buffer. Nonspecific binding was measured in the presence of 10 μM MPEP. The radioactivity on the filter was counted (3 min) on a Packard Top-count microplate scintillation counter with quenching correction after addition of 45 μl of microscint 40 (Canberra Packard S.A., Zurich, Switzerland) and shaking for 20 min.
Structure (SMILES),Activity profile [1],Ki [2] [nM],Efficacy [%] [1] [%],further results
"CC(C)(NC(=O)c1ccc(C#Cc2ccnc(Cl)c2)cn1)C(F)(F)F [Reference compound 3, reference compound]",PAM,58,,
CN(C(=O)c1ccc(C#Cc2ccnc(Cl)c2)cn1)C(C)(C)C [drawing 6],,,,mGlu5 PAM EC50 [nM] [1]: Inactive
"CN(C(=O)c1ccc(C#Cc2cncc(Cl)c2)cn1)C(C)(C)C [Reference compound 2, reference compound]",PAM,42,,
"CN(C(=O)c1ccc(C#Cc2ccnc(Cl)c2)cn1)C(C)(C)C [Example 1, 5-(2-Chloro-pyridin-4-ylethynyl)-pyridine-2-carboxylic acid tert-butyl-methyl-amide]",NAM,28,,EC50 (nM) mGlu5 PAM assay [1]: inactive
"CN(C(=O)c1ccc(C#Cc2cccc(Cl)c2)cn1)C(C)(C)C [Example 2, 5-(3-Chloro-phenylethynyl)-pyridine-2-carboxylic acid tert-butyl-methyl-amide]",NAM,15,,EC50 (nM) mGlu5 PAM assay [1]: inactive
"CN(C(=O)c1ccc(C#Cc2cccc(F)c2)cn1)C(C)(C)C [Reference compound 1, reference compound]",PAM,29,,
CC(C)(NC(=O)c1ccc(C#Cc2ccnc(Cl)c2)cn1)C(F)(F)F [drawing 5],,,80,
CN(C(=O)c1ccc(C#Cc2cccc(F)c2)cn1)C(C)(C)C [drawing 3],,,64,
CN(C(=O)c1ccc(C#Cc2cncc(Cl)c2)cn1)C(C)(C)C [drawing 4],,,33,
CN(C(=O)c1ccc(C#Cc2cccc(Cl)c2)cn1)C(C)(C)C [drawing 7],,,,mGlu5 PAM EC50 [nM] [1]: inactive
